Results reported in the supplement of paper PMC10307832.

Columns and labels:
Assay in all cases: relative viability (nuclei count vs DMSO), 5 days (fraction); higher = more cells survive
[1] = compound: O=C1NC(=O)[C@@H](c2cn3c4c(cccc24)CCC3)[C@@H]1c1c[nH]c2ccccc12 [Tivantinib] + C[C@]1(O)C[C@@H](c2nc(-c3ccc4ccc(-c5ccccc5)nc4c3)c3c(N)nccn32)C1 [Linsitinib] (partner 1 µM)
Procedure, shortened: (§1)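 Cells from lung cancer lines were seeded into 1536-well plates and, one day later, dosed by pin tool. Treatments were either a single drug or a fixed dose of an anchor drug with five library-drug doses (not always all listed) in √10 steps. After 5 days, nuclei were stained in a one-step fixation (final 0.05% Triton X-100, 1% formaldehyde, 1 ug/ml Hoechst) and counted on 4× images, and relative viability is the treated-to-vehicle nuclei ratio, as the median of duplicate plates.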

[2] = compound: O=C1NC(=O)[C@@H](c2cn3c4c(cccc24)CCC3)[C@@H]1c1c[nH]c2ccccc12 [Tivantinib] + CC(=O)Nc1cccc(-n2c(=O)n(C3CC3)c(=O)c3c(Nc4ccc(I)cc4F)n(C)c(=O)c(C)c32)c1 [Trametinib] (partner 0.02 µM)
Procedure, shortened: as §1

[3] = compound: O=C1NC(=O)[C@@H](c2cn3c4c(cccc24)CCC3)[C@@H]1c1c[nH]c2ccccc12 [Tivantinib] + Nc1ncn([C@H]2C[C@H](O)[C@@H](CO)O2)c(=O)n1 [Decitabine] (partner 2 µM)
Procedure, shortened: as §1

[4] = compound: CC1(COc2ccc3c(c2)ncn3-c2ccc3cccc(N4CCC(N)CC4)c3n2)COC1 [Crenolanib] + CCNC(=O)c1noc(-c2cc(C(C)C)c(O)cc2O)c1-c1ccc(CN2CCOCC2)cc1 [Luminespib] (partner 0.01 µM)
Procedure, shortened: as §1

Cell Line	relative viability ([1]; first compound 0.01 µM)	relative viability ([1]; first compound 0.03162 µM)	relative viability ([1]; first compound 0.1 µM)	relative viability ([1]; first compound 0.3162 µM)	relative viability ([2]; first compound 0.01 µM)	relative viability ([2]; first compound 0.03162 µM)	relative viability ([2]; first compound 0.1 µM)	relative viability ([2]; first compound 0.3162 µM)	relative viability ([3]; first compound 0.01 µM)	relative viability ([3]; first compound 0.03162 µM)	relative viability ([3]; first compound 0.1 µM)	relative viability ([3]; first compound 0.3162 µM)	relative viability ([4]; first compound 0.01 µM)	relative viability ([4]; first compound 0.03162 µM)	relative viability ([4]; first compound 0.1 µM)	relative viability ([4]; first compound 0.3162 µM)	relative viability ([4]; first compound 1 µM)
NCI-H520	1.13	1.11	0.812	0.91	0.798	0.723	0.576	0.701	0.462	0.454	0.46	0.436	0.19	0.269	0.279	0.216	0.221
NCI-H596	1.05	1.05	1.05	1.04	0.897	0.839	0.774	0.678	1.12	1.07	1.01	1.12	1.11	0.97	0.932	1.12	1.11
NCI-H647	1.15	1.19	1.12	1.19	0.462	0.411	0.416	0.369	0.437	0.305	0.381	0.357	0.202	0.206	0.44	0.233	0.107
NCI-H650	0.997		0.774	0.973	0.936	0.787	0.899	0.945	0.355	0.287	0.315	0.327	0.839	0.791	0.777	0.872	0.757
NCI-H661	0.658	0.442	0.628		0.602	0.561	0.536	0.355	0.565	0.542	0.558	0.398	0.939	0.88	0.893	0.958	0.959
NCI-H727	0.293	0.253	0.243		0.413	0.343	0.398		0.748	0.924	0.882		0.353	0.376	0.264	0.428	0.376
NCI-H838	1.01	1.04	0.975	0.984	0.542	0.501	0.469	0.527	0.446	0.48	0.428	0.442	0.353	0.235	0.29	0.301	0.373
NCI-H1355	0.726	0.801	0.725	0.779	0.476	0.412	0.469	0.367	0.377	0.316	0.342	0.381	0.741	0.777	0.65	0.721	0.665
NCI-H1395	1.1	1.22	0.926	0.857	0.987	1.11	1.02	0.83	0.736	0.665	0.845	0.713	0.686	0.803	0.698	0.763	0.58
NCI-H1437	1.06	1.04	0.958	1.04	0.637	0.464	0.441	0.514	0.57	0.568	0.497	0.545	1.18	1.17	1.1	1.21	0.911
NCI-H1651	0.937	1.01	1.04	0.814	0.801	0.798	0.825	0.787	0.592	0.659	0.608	0.583	0.867	0.926	0.711	0.875	0.748
NCI-H1666	0.699	0.807	0.741	0.735	0.815	0.786	0.827	0.814	0.745	0.684	0.748	0.747	1.07	1.11	0.991	0.977	1.03
NCI-H1734	0.937	0.846	0.839	0.85	0.611	0.676	0.677	0.604	0.532	0.487	0.506	0.427	0.174	0.171	0.191	0.173	0.291
NCI-H1755	0.975	0.97	0.916	1.01	0.78	0.748	0.666	0.771	0.727	0.67	0.725	0.765	0.416	0.656	0.667	0.43	0.397
NCI-H1792	0.596	0.431	0.512	0.323	0.421		0.394	0.37	0.535		0.473	0.505	0.563	0.424	0.367	0.394	0.429
NCI-H1793	0.994	0.843	0.813		0.506	0.408	0.404	0.329	0.502	0.497	0.495	0.404	0.197	0.249	0.165	0.16	0.186
NCI-H1915	1.1	1.14	1.12	1.08	0.287	0.294	0.282	0.276	0.279	0.248	0.263	0.254	0.787	0.875	0.757	0.857	0.803
